Reference: PMC13310753, “Discovery of actinomycin derivatives with improved selectivity against malaria parasites from a Streptomyces culture library” (The Journal of Antibiotics, 2026)
Read-outs that look alike come from different tables or passages of the source. Numbered stars: 1 amine (or outer) side, 2 acyl side, 3 side chain; on linkers, the order of the positions; unused ones are H or OH. Bridge positions count the residues as written; N and C are the ends. Square brackets hold non-standard residues; d marks the D form. Peptide text beside a SMILES is read from it. I, II: the chains in the order shown. Actinocin(1to9) = Cc1c2oc3c(C)ccc(C(=O)[*:2])c3nc-2c(C(=O)[*:1])c(N)c1=O; Actinocin(9to1) = Cc1c2oc3c(C)ccc(C(=O)[*:1])c3nc-2c(C(=O)[*:2])c(N)c1=O; Pro(4-oxo) = O=C1CN[C@H](C(=O)O)C1; Hyp = O=C(O)[CH]1C[CH](O)CN1; NMeV = CN[CH](C(=O)O)C(C)C; Sar = CNCC(=O)O

Assays:
P. falciparum strain 3D7 = test: microbe, parasite or virus in culture; format: cell-based, Plasmodium falciparum; settings: for SI, selectivity index (CC50/IC50): CC50 in AMB cells / IC50 against 3D7; for IC50: Plasmodium falciparum, 3D7, 48 h, read-out: IC50 (50% inhibitory concentration), in vitro antimalarial activity; for antimalarial activity of purified components (in words): bioassay during purification using P. falciparum strains 3D7 and Dd2
Description: (§1) Malarial parasite cultures and AMB cells were previously described. The detailed experimental procedure is described in the Supplementary data. Antimalarial activity and cytotoxicity were evaluated at 50% inhibitory concentration (IC50) and 50% cytotoxic concentration (CC50), respectively. We here analyzed these activities on purified actinomycin X2 (1), actinomycin X0ß (2), and commercially available actinomycin D (3). The SI is calculated as CC50/IC50.
(§2) Blood stages of P. falciparum 3D7 cell lines were provided by Nagasaki University with support in part by NEKKEN Bio-Resource Center (NEKKEN BRC), Institute of Tropical Medicine, Nagasaki University as a part of National BioResource Project (NBRP), MEXT, Japan. Human erythrocytes used for parasite culture were obtained from the Japan Red Cross Society (Registration No. 28J0060). The 3D7 parasites were cultivated in O+ erythrocytes in 2% hematocrit in Roswell Park Memorial Institute (RPMI) 1640-based complete medium (CM) supplemented with 5% AB+ human serum (prepared from plasma), 0.25% AlbuMax I (Gibco, Waltham, MA), 12.5 µg/mL gentamycin, and […] hypoxanthine […]
(§3) Primary adult mouse brain (AMB) cells were isolated and established at the NEKKEN Bio-Resource Center, according to previously established methods (Ref. 2). Briefly, the primary cells, which were passaged several times to be adapted to in vitro conditions, were maintained in Minimum Essential Medium (MEM) (Wako Pure Chemicals Industrial Ltd, Osaka, Japan) supplemented with 10% fetal bovine serum (FBS), penicillin/streptomycin solution (100 units/mL penicillin G and […] streptomycin sulfate) (Wako Pure Chemicals Industrial Ltd) and incubated at 37°C and 5% CO2. For the cytotoxicity assay, primary cells that had completed three passages were used.
Antimalarial growth inhibition assays
The antimalarial growth inhibition assay to determine 50% inhibition concentration (IC50) of compounds was performed as described before, with a minor modification (Ref. 3).
Briefly, The P. falciparum cultures (0.75% parasitemia and 2% hematocrit) were seeded on a 96-well black plate with the clear bottom (Thermo Fisher Scientific, Rochester, NY) and […]
exposed to compounds serially diluted threefold over a concentration range of 2.5 µg/mL to 0.13 ng/mL at the final concentration. As a result of the dose-response assay, IC50 value, the concentration of drug required to reduce parasites by 50% (10(log(A/B) × (50 ‒ C)/(D ‒ C) + log(B)) was obtained, where A represents the lowest concentration at which the percentage inhibition was greater than 50%, B is the highest concentration value at which the percentage inhibition was less than 50%, C is the percentage inhibition value of the sample at concentration B, and D is the percentage inhibition value of the sample at concentration A.
The culture plates were kept at 37°C under mixed gas (5% O2, 5% CO2, and 90% N2) for 48 hrs. Each in vitro experiment was performed in duplicate wells and repeated twice. The parasite growth inhibition was obtained by dividing the test samples' parasitemia by the negative controls' average.
SYBR Green – I (Lonza, Rockland, ME) assay technique was used to detect the parasite DNA. The RBCs were lysed after 48 hrs of incubation by adding 100 µL of lysis buffer (20 mM Tris, 10 mM EDTA, 0.01% saponin (wt/vol), and 0.1% Triton X-100 (vol/vol), pH 7.5) and 1× final concentration of SYBR Green - I into each well. The plates were incubated at room temperature for 1 hr with gentle agitation. The relative fluorescence units (RFU) per well were then determined at 485–515 nm (filter) for 0.1 sec per exposure using a multilabel plate reader (ARVO 1430; Perkin Elmer, Waltham, MA, USA).
Cytotoxicity assay was performed to determine 50% cytotoxic concentration (CC50) as previously described with minor modification (Ref. 4). Briefly, AMB cells (1×10^4 cells) were seeded in a 96-well plate (black plate with a clear bottom) and incubated at 37°C in a CO2

[1] = Cytotoxicity assay (Alamar Blue), primary adult mouse brain cells; format: cell-based; settings: AMB cells, two independent experiments in duplicate wells, read-out: CC50 (50% cytotoxic concentration)
Description: as §1, §2
as §3, with “used. […]” for “used.”
SYBR Green – I (Lonza, Rockland, ME) assay technique was used to detect the parasite DNA. […] The relative fluorescence units (RFU) per well were then determined at 485–515 nm (filter) for 0.1 sec per exposure using a multilabel plate reader (ARVO 1430; Perkin Elmer, Waltham, MA, USA). […]

Structure (SMILES)	SI value relative to that of actinomycin D (P. falciparum strain 3D7)	SI, selectivity index (CC50/IC50) (P. falciparum strain 3D7)	IC50 (P. falciparum strain 3D7; P. falciparum 3D7, 48 hrs, two independent experiments in duplicate wells)	antimalarial activity of purified components (in words) (P. falciparum strain 3D7)	SI value relative to that of actinomycin D (P. falciparum strain 3D7; listed as 2)	CC50 ([1]; 48 hrs)	IC50 (P. falciparum strain 3D7)	SI value relative to that of actinomycin D (P. falciparum strain 3D7; listed as 1)	CC50 at 48 h [1]
Cc1c2oc3c(C)ccc(C(=O)NC4C(=O)NC(C(C)C)C(=O)N5CCCC5C(=O)N(C)CC(=O)N(C)C(C(C)C)C(=O)OC4C)c3nc-2c(C(=O)NC2C(=O)NC(C(C)C)C(=O)N3CC(O)CC3C(=O)N(C)CC(=O)N(C)C(C(C)C)C(=O)OC2C)c(N)c1=O (centres unmarked) [actinomycin X0ß] (I: TV[Hyp][Sar][NMeV] / II: TVP[Sar][NMeV]; ester I:1-I:C, II:1-II:C; linker I:N-II:N via Actinocin(1to9); configuration not given here)	seven	106	7.69 nM	significant antimalarial activity	7 fold	818 nM	–	–	–
Cc1c2oc3c(C)ccc(C(=O)N[C@@H]4C(=O)N[C@H](C(C)C)C(=O)N5CCC[C@H]5C(=O)N(C)CC(=O)N(C)[C@@H](C(C)C)C(=O)O[C@@H]4C)c3nc-2c(C(=O)N[C@@H]2C(=O)N[C@H](C(C)C)C(=O)N3CC(=O)C[C@H]3C(=O)N(C)CC(=O)N(C)[C@@H](C(C)C)C(=O)O[C@@H]2C)c(N)c1=O [actinomycin X2] (I: T[dV][Pro(4-oxo)][Sar][NMeV] / II: T[dV]P[Sar][NMeV]; ester I:1-I:C, II:1-II:C; linker I:N-II:N via Actinocin(1to9))	–	27.9	–	significant antimalarial activity	–	–	0.241 nM	2 fold	6.71 nM
Cc1c2oc3c(C)ccc(C(=O)N[C@@H]4C(=O)N[C@H](C(C)C)C(=O)N5CCC[C@H]5C(=O)N(C)CC(=O)N(C)[C@@H](C(C)C)C(=O)O[C@@H]4C)c3nc-2c(C(=O)N[C@@H]2C(=O)N[C@H](C(C)C)C(=O)N3CCC[C@H]3C(=O)N(C)CC(=O)N(C)[C@@H](C(C)C)C(=O)O[C@@H]2C)c(N)c1=O [actinomycin D] (I: T[dV]P[Sar][NMeV] / II: T[dV]P[Sar][NMeV]; ester I:1-I:C, II:1-II:C; linker I:N-II:N via Actinocin(9to1))	–	14.3	–	–	–	–	0.469 nM	–	6.71 nM
